This assay concerns the target DNA (cytosine-5)-methyltransferase 1 (Homo sapiens) (UniProt P26358). The assay can be described thus: Inhibition of DNMT1 assessed as drug level causing inhibition by SPA.
DNA (cytosine-5)-methyltransferase 1 (Homo sapiens), sequence (P26358 whole entry): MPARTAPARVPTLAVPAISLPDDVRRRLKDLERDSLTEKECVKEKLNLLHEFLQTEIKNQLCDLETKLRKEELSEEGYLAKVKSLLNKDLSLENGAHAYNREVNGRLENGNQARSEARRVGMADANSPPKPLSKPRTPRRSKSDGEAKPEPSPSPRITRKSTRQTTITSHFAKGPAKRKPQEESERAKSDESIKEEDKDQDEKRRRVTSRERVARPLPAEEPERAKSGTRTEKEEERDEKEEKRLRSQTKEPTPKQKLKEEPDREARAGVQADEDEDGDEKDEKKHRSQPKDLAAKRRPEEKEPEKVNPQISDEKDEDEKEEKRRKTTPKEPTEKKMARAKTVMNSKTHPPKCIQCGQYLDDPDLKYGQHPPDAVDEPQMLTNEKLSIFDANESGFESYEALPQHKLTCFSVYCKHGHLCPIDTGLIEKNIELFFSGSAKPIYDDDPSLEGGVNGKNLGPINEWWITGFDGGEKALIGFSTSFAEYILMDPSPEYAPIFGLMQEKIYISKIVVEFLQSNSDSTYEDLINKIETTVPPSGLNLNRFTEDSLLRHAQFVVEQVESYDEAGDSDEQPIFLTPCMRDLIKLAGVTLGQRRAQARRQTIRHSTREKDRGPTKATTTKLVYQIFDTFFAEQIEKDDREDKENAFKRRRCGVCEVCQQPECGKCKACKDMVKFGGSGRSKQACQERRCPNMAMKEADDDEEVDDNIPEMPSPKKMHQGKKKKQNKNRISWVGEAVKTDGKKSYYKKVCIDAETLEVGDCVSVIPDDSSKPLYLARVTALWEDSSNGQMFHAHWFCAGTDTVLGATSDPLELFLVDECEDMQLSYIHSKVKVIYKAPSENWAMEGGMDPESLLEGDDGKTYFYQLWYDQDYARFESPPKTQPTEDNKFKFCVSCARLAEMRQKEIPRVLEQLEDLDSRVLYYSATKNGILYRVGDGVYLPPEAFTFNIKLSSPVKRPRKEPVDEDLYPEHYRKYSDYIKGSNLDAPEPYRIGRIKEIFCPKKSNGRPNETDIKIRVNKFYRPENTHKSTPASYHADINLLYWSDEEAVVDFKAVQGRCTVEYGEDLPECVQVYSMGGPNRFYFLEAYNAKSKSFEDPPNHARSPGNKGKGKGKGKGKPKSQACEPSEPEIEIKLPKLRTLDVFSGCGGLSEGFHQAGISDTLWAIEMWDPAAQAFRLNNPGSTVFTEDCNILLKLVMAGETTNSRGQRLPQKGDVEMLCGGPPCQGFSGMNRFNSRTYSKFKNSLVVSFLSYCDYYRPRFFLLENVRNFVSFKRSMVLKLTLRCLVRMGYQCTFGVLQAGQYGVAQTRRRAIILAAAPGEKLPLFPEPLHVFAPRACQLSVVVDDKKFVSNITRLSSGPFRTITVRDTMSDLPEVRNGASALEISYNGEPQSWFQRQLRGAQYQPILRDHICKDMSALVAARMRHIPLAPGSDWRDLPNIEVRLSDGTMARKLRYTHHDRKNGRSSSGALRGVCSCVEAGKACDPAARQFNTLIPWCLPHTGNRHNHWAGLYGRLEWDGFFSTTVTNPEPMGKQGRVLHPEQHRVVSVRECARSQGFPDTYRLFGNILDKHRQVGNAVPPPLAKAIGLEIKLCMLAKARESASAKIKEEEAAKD
For the compound `C=C(Cl)[C@](Cl)(CBr)CC[C@@H](Br)C(C)(C)Cl`, the Activity was 1.25 µM. As for `C=C(Cl)/C(=C\Br)CCC(Br)C(C)(C)Cl` (centres undefined), the figure is 55 µM; as for `C=C(Cl)/C(=C\Br)CCC(Br)=C(C)C`, 1.65 µM. As for `C=C[C@](Cl)(CBr)CC[C@@H](Br)C(C)(C)Cl`, the figure is 21.9 µM.

The values are drawn from ChEMBL document CHEMBL1157312, “DNA methyl transferase inhibiting halogenated monoterpenes from the Madagascar red marine alga Portieria hornemannii” (J Nat Prod, 2006).
